From US6878730B2, “Quaternary ammonium compounds” (Pharmacia & UpJohn, priority 2002, dated 2005)

Assay: Aerosol treatment for dyspnea, FEV1/FVC ratio
Type: in vivo
Details: aerosol formulation, 50 μg every 8 hr continuously for dyspnea; after a week of treatment
Protocol: Ten minutes and 36 hours later, the mice are moved to whole body plethysmograph chambers. Bronchoconstriction is induced in mice by administration of an 80 mg/ml methacholine (MC) aerosol into the plethysmograph chambers for 5 minutes. The mice are allowed to inhale an aerosol containing 80 mg/ml methacholine following inhalation treatment with DPBS vehicle (Dulbecco's Phosphate Buffered Saline), or 80 mg/ml methacholine following inhalation treatment with 1.29 mg/ml of the title compound of example I. The average enhanced pause (Penh, lung resistance), corresponding to airflow resistance, is determined and statistically analyzed using Kruskal-Wallis one way ANOVA. In order to determine the baseline, saline aerosol (without methacholine) is also separately administered to the mice, treated with the compound of example I in an aerosol formulation, 50 μg every 8 hr continuously for dyspnea. After a week of treatment, the FEV1/FVC ratio improves to about 65%.

## C[N+]1(Cc2cccc(N)n2)CCC(NC(=O)[C@](O)(c2ccccc2)[C@@H]2CCC(F)(F)C2)CC1.[I-] (stereo partly drawn) [Example I, (2R)-N-[1-(6-aminopyridin-2-ylmethyl)1-methylpiperdin-4-yl]-2-[(1R)-3,3,-difluorocyclopentyl]-2-hydroxy-2-phenylacetamide iodide]
  FEV1/FVC ratio: about 65%
